Results published in patent publication US20060265770A1, “Transgenic mice containing glutamate receptor (GRIK5) gene disruptions” (priority 2000, published 2006).

Test system: F2N1 Male Mice
Assay: Metrazol Test (seizure susceptibility, tail vein infusion)
Assay type: in vivo, mouse
Conditions: for dose at death, Average ± Stdev / dose at first twitch, Average ± Stdev / dose at tonic extension, Average ± Stdev / dose at tonic/clonic seizure, Average ± Stdev: 5 mg/mL Metrazol infused through tail vein at 0.375 mL/min
Protocol: A metrazol administration test can be used to screen animals for varying susceptibilities to seizures or similar events. For example, a 5 mg/ml solution of metrazol can be infused through the tail vein of a mouse at a rate of, e.g., approximately 0.375 ml/min. The infusion will cause all mice to experience seizures, followed by death. Those mice that enter the seizure stage the soonest are believed to be more prone to seizures.
To screen for phenotypes involving changes in seizure susceptibility, the Metrazol Test was used. A 5 mg/mL solution of Metrazol was infused through the tail vein of the mouse at a constant rate of 0.375 mL/min. The infusion causes all mice to experience seizures. Those mice who enter the seizure stage the quickest are thought to be more prone to seizures in general.
To screen for phenotypes involving epilepsy, the Metrazol was used. Seven to ten adult wild-type and homozygote males were used. A fresh solution of 5 mg/ml pentylenetetrazole in 0.9% NaCl was prepared prior to testing. Mice were weighed and loosely held in a restrainer. After exposure to a heat lamp to dilate the tail vein, mice were continuously infused with the pentylenetetrazole solution using a syringe pump set at a constant flow rate. The following stages were recorded: first twitch (sometimes accompanied by a squeak), beginning of the tonic/clonic seizure, tonic extension and survival time. The dose required for each phase is determined and the latency to each phase was determined between genotypes. Alterations in any stage may indicate an overall imbalance in excitatory or inhibitory neurotransmitter levels. When compared to age- and gender-matched wild-type (+/+) control mice, homozygous mutant (−/−) mice required a lower dose of metrazol to induce a tonic/clonic seizure (FIG. 5 and Table 1), indicating an increased susceptibility to seizure.

[1] = GRIK5 homozygous mutant (−/−) F2N1 male mice

SMILES: C1CCc2nnnn2CC1 [Metrazol, pentylenetetrazole]
- dose at death, Average ± Stdev [1]: 136.12 ± 27.18 mg/kg
- dose at first twitch, Average ± Stdev [1]: 26.38 ± 2.59 mg/kg
- dose at tonic extension, Average ± Stdev [1]: 115.34 ± 28.63 mg/kg
- dose at tonic/clonic seizure, Average ± Stdev [1]: 34.02 ± 6.24 mg/kg
- dose of metrazol to induce a tonic/clonic seizure, in words (homozygous mutant (−/−) mice compared to age- and gender-matched wild-type (+/+) control mice): lower dose
- dose at death, Average ± Stdev (wild-type (+/+) F2N1 male mice): 134.29 ± 31.19 mg/kg
- dose at first twitch, Average ± Stdev (wild-type (+/+) F2N1 male mice): 29.73 ± 3.85 mg/kg
- dose at tonic extension, Average ± Stdev (wild-type (+/+) F2N1 male mice): 112.07 ± 29.70 mg/kg
- dose at tonic/clonic seizure, Average ± Stdev (wild-type (+/+) F2N1 male mice): 44.59 ± 9.74 mg/kg
